Assay results published in patent US20240174622A1, “COMPOUND AND RADIOACTIVE LABELING COMPOUND” (NIHON MEDI-PHYSICS CO., LTD., priority 2021, published 2024).

Assays:
[1] = tested on: LNCaP cells (PSMA-positive, human prostate cancer); experiment: Binding assay using cultured cells (LNCaP); assay type: cell-based; conditions: for binding to LNCaP cells on adding an excess amount of the PSMA inhibitor (2-PMPA): 2-PMPA final concentration 100 μM
Experimental: LNCaP cells (PSMA-positive, human prostate cancer) and PC-3 cells (PSMA-negative, human prostate cancer) were used. These cells were purchased from American Type Culture Collection and DS Biomedical, respectively. Each of the cells were cultured in RPMI 1640, which is manufactured by NACALAI TESQUE, INC. and contains antibiotics (penicillin and streptomycin) and 10% inactivated fetal bovine serum, at 37° C. under 5% CO2.
The LNCaP cells and PC-3 cells were each seeded on a 12 well plate at 4.0×10^5 cells/well, and left standing at 37° C. under 5% CO2 for 48 hours.
The culture medium was removed, and an assay medium (0.5% FBS-containing RPMI 1640 medium) solution (1 mL) containing [^111In]In-PSMA-DA1 or [^111In]In-PSMA-DB (37 kBq) was added. Thereafter, the plate was allowed to stand at 37° C. under 5% CO2 for 1 hour.
(§1) In the inhibition assays, after removing the culture medium, an assay medium (1 mL) solution containing: [^111In]In-PSMA-DA1 or [^111In]In-PSMA-DB (37 kBq); and 2-(phosphonomethyl) pentanedioic acid (2-PMPA) (PSMA inhibitor; final concentration: 100 μM) was added. Thereafter, the plate was allowed to stand at 37° C. under 5% CO2 for 1 hour.
After removing the assay medium, each well was washed with an assay medium (1 mL) containing neither the radiolabeled compound nor 2-PMPA, and the cells were lysed with 1 N aqueous sodium hydroxide solution (200 μL×2).
The radioactivity for each of the assay medium and the cell lysate was measured with a gamma counter. Separately, the total protein concentration in the cell lysate was calculated using BCA Protein Assay Kit, which is manufactured by Thermo Fisher Scientific K.K. The value (% ID/mg protein) obtained by dividing the percentage (% ID) of the sample's radioactivity amount to the added radioactivity amount by the total protein amount was calculated for each sample.
In the same manner as in Example 1-1 described above, LNCaP cells and PC-3 cells were cultured and cell-binding assay were performed. Evaluation was carried out by the same experimental procedure and statistical method as in Example 1-1, except that 0.5% FBS-containing RPMI 1640 medium (1 mL) containing [^111In]In-PtDA (37 kBq) was used.
LNCaP cells and PC-3 cells cultured in the same method as in Example 1-1 were each seeded on a 12 well plate at 4.0×10^5 cells/well, and left standing at 37° C. under 5% CO2 for 48 hours. The culture medium was removed, and an assay medium (0.5% FBS-containing RPMI 1640 medium) solution (1 mL) containing the radiolabeled compound (37 kBq each) in Examples 3-1 to 3-3 or Comparative Examples 2-1 to 2-2 was added. Thereafter, the plate was allowed to stand at 37° C. under 5% CO2 for 1 hour.
as §1, with “experiments,” for “assays,”, “mL)” for “mL) solution”, “the radiolabeled compound described above;” for “[^111In]In-PSMA-DA1 or [^111In]In-PSMA-DB (37 kBq);”
After removing the assay medium, each well was washed with assay medium (1 mL), and the cells were lysed with 1 N aqueous sodium hydroxide solution (200 μL×2).
Radioactivity of each of the cell lysates was measured with a gamma counter. Separately, the total protein concentration in the cell lysate was calculated using BCA Protein Assay Kit, which is manufactured by Thermo Fisher Scientific K.K. The value (% ID/mg protein) obtained by dividing the percentage (% ID) of the sample's radioactivity amount to the added radioactivity amount by the total protein amount was calculated for each sample.
LNCaP cells and PC-3 cells cultured in the same method as in Example 1-1 were each seeded on a 12 well plate at 4.0×10^5 cells/well, and left standing at 37° C. under 5% CO2 for 48 hours.
Thereafter, the plate was allowed to stand at 37° C. under 5% CO2 for 1 hour. […]

[2] = target: T1, plasma albumin (mouse plasma) (Mus musculus, UniProt P07724); experiment: Evaluation of binding to albumin (mouse plasma); conditions: for radioactivity in the eluate (in words): left to stand in mouse plasma
T1 construct: from tissue; host or cells: mouse plasma
T1 sequence (P07724 25-608): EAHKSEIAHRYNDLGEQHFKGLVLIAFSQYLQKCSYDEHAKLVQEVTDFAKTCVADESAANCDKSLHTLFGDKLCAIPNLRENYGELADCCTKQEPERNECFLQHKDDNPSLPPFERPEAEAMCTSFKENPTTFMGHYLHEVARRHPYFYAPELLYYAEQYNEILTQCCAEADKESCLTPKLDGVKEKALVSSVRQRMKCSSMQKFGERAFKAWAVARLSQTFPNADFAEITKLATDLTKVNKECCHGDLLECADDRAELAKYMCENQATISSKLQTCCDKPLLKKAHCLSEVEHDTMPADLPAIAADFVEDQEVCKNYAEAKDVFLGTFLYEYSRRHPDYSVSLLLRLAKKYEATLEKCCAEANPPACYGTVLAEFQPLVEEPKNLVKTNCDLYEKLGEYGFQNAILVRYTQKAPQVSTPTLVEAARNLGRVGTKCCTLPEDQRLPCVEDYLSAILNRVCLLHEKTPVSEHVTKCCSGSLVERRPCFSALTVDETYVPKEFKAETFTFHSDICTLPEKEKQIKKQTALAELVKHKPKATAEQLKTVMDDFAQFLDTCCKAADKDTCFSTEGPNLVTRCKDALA
Experimental: A PBS solution (37 kBq, 50 μL) of [^111In]In-PSMA-DA1 or [^111In]In-PSMA-DB was added to 200 μL of PBS, mouse plasma, human plasma, or a human serum albumin (HSA) solution (45 mg/mL) in PBS, respectively, and the mixtures were allowed to stand at 37° C. for 10 minutes. Thereafter, the reaction liquids were added to a spin column ([…]; manufactured by Cytiva), and centrifuged at 1500×g at 4° C. for 2 minutes. After separation, the radioactivity for each of the column and the eluate was measured with a gamma counter.
(§2) When a compound to be evaluated binds to albumin to form a composite, the compound passes through the column because of the increased molecular size.
As in Example 1-1 described above, PBS, mouse plasma, human plasma, and human albumin were used to evaluate binding to albumin. Evaluation was carried out by the same experimental procedure and statistical method as in Example 1-1, except that a PBS solution (37 kBq, 50 μL) of [^111In]In-PtDA was used.
(§3) Thereafter, the reaction liquid was added to a spin column (Sephadex G-50; manufactured by Cytiva), and centrifuged at 1500×g at 4° C. for 2 minutes. After separation, the radioactivity of the column and the eluate was measured with a gamma counter.

[3] = target: human serum albumin (HSA) (Homo sapiens, UniProt P02768); experiment: Evaluation of binding to albumin (HSA solution, PBS control)
human serum albumin (HSA), sequence (P02768 25-609): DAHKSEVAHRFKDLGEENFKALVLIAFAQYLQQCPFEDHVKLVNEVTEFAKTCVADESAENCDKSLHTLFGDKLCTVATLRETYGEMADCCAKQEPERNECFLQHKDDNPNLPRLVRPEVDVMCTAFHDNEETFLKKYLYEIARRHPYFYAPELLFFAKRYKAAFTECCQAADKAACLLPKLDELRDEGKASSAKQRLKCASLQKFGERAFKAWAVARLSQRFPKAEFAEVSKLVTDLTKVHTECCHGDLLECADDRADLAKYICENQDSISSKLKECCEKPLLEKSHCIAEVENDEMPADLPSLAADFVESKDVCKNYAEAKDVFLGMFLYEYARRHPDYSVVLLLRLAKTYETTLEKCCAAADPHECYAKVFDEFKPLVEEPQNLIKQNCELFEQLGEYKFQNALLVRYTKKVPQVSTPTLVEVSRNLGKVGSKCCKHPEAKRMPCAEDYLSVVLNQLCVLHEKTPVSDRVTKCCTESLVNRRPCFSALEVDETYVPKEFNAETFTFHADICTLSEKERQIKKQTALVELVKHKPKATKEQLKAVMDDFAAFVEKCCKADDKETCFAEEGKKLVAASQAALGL
Experimental: Thereafter, the reaction liquids were added to a spin column (Sephadex G-100; manufactured by Cytiva), and centrifuged at 1500×g at 4° C. for 2 minutes. After separation, the radioactivity for each of the column and the eluate was measured with a gamma counter.
as §2
As in Examples described above, PBS and human albumin were used to evaluate binding to albumin.
as §3

[4] = left to stand in HSA solution (45 mg/mL)

SMILES	radioactivity in the eluate (in words) [3, 4]	radioactivity in the eluate (in words) ([3]; left to stand in PBS)	binding to LNCaP cells on adding an excess amount of the PSMA inhibitor (2-PMPA) [1]	binding ability to LNCaP cells compared to PC-3 cells ([1]; 37° C., 1 hour)	radioactivity in the eluate (in words) [2]	other results
O=C(O)CC[C@H](NC(=O)N[C@@H](CCCCNC(=O)[C@H](Cc1ccc2ccccc2c1)NC(=O)[C@H]1CC[C@H](CNC(=O)CCC(C(=O)O)N2CCN(CC(=O)O)CCN(C(CCC(=O)N[C@@H](CCCCNC(=O)CCCc3ccc(I)cc3)C(=O)O)C(=O)O)CCN(CC(=O)O)CC2)CC1)C(=O)O)C(=O)O (some centres unmarked) [[^111In]In-PSMA-NAT-DA1, metal not drawn]	–	–	significantly reduced	high binding ability	significantly high	–
O=C([O-])CN(Cc1cccc(C(=O)[O-])n1)C[C@H](Cc1ccc(NC(=O)[C@H](CCCCNC(=O)CCC(=O)NCCCC[C@H](NC(=O)N[C@@H](CCC(=O)O)C(=O)O)C(=O)O)NC(=O)CCCc2ccc(I)cc2)cc1)N(CC(=O)[O-])Cc1cccc(C(=O)[O-])n1.[111In+3] [[^111In]In-Octapa-2]	significantly higher	–	–	–	–	–
O=C([O-])CN1CCN(C(CCC(=O)NCCC(=O)N2Cc3ccccc3-c3c(nnn3CCOCCOCCOCCOCCC(=O)NCCCC[C@H](NC(=O)N[C@@H](CCC(=O)O)C(=O)O)C(=O)O)-c3ccccc32)C(=O)[O-])CCN(CC(=O)[O-])CCN(C(CCC(=O)N[C@@H](CCCCNC(=O)CCCc2ccc(I)cc2)C(=O)O)C(=O)[O-])CC1.[111In+3] (some centres unmarked) [[^111In]In-PtDA]	–	–	–	–	–	binding to LNCaP cells with excess PSMA inhibitor (2-PMPA) ([1]; 2-PMPA 100 μM): 0.36 % ID/mg protein; binding to LNCaP cells ([1]; 37° C., 1 hour): 15 % ID/mg protein; radioactivity in the eluate ([2]; mouse plasma): 67.2%; radioactivity in the eluate ([3]; PBS): 6.9%; radioactivity in the eluate ([3]; human albumin solution): 92.4%

The next lines start with results.

radioactivity in the eluate (in words) [3, 4]	radioactivity in the eluate (in words) ([3]; left to stand in PBS)	SMILES	binding to LNCaP cells on adding an excess amount of the PSMA inhibitor (2-PMPA) [1]	binding ability to LNCaP cells compared to PC-3 cells ([1]; 37° C., 1 hour)	radioactivity in the eluate (in words) [2]	other results
significantly higher	no significant radioactivity	O=C([O-])CN1CCN(C(CCC(=O)NCCCC[C@H](NC(=O)N[C@@H](CCC(=O)O)C(=O)O)C(=O)O)C(=O)[O-])CCN(CC(=O)[O-])CCN(C(CCC(=O)N[C@@H](CCCCNC(=O)CCCc2ccc(I)cc2)C(=O)O)C(=O)[O-])CC1.[111In+3] (some centres unmarked) [[^111In]In-PSMA-DA1]	significantly reduced	high binding ability	significantly higher	–
–	no significant radioactivity	O=C([O-])CN1CCN(C(CCC(=O)NCCCC[C@H](NC(=O)N[C@@H](CCC(=O)O)C(=O)O)C(=O)O)C(=O)[O-])CCN(CC(=O)[O-])CCN(C(CCC(=O)Nc2ccccc2)C(=O)[O-])CC1.[111In+3] (some centres unmarked) [[^111In]In-PSMA-DB, reference compound]	significantly reduced	high binding ability	–	–
